Measured values published in US20240368104A1, “Novel Dialkoxynaphtho[2,3-C]Furan-1(3H)-One Derivatives and Pharmaceutical Composition For Preventing or Treating Respiratory Disease or SARS-COV-2 Infection Disease, Comprising Same” (priority 2021, published 2024).
Where a name gives a salt, the structure may show the parent alone. Read-outs that look alike come from different tables or passages of the source.

Columns and labels:
SARS-COV-2 = assay: microbe, parasite or virus in culture; type: cell-based; parameters: SI (Selectivity Index, CC50/IC50): unit not given here; conditions: for SI (Selectivity Index, CC50/IC50): SARS-COV-2, values >50 assumed to be 50; for IC50: read-out: SARS-COV-2 inhibition (IC50)
in vitro = conditions: African green monkey
[1] = Severe acute respiratory syndrome coronavirus 2, Vero cells, 24 hours infection
[2] = Severe acute respiratory syndrome coronavirus 2, Vero, 24 h

Compound	SI (Selectivity Index, CC50/IC50) (SARS-COV-2)	IC50 (SARS-COV-2; [1])	CC50 (in vitro)	IC50 (SARS-COV-2; [2])
CCN(CCOC)c1ccc(-c2c3c(cc4cc(OC)c(OC)cc24)COC3=O)cc1 [Example 253, 9-(4-(ethyl(2-methoxyethyl)amino)phenyl)-6,7-dimethoxynaphtho[2,3-c]furan-1(3H)-one]	20.54	2.43 µM	> 50 µM	
COC[C@@H]1CCCN1c1ncc(-c2c3c(cc4cc(OC)c(OC)cc24)COC3=O)cn1.Cl [Example 97, (S)-6,7-dimethoxy-9-(2-(2-(methoxymethyl)pyrrolidin-1-yl)pyrimidin-5-yl)naphtho[2,3-c]furan-1(3H)-one hydrochloride]	8.74		> 50 µM	5.72 µM
COc1cc2cc3c(c(-c4ccc(N5CCC(C)CC5)nc4)c2cc1OC)C(=O)OC3 [Example 159, 6,7-dimethoxy-9-(6-(4-methylpiperidin-1-yl)pyridin-3-yl)naphtho[2,3-c]furan-1(3H)-one]	32.86	1.52 µM	> 50 µM	
COc1cc2cc3c(c(-c4cnc(N(C)CCC5OCCO5)nc4)c2cc1OC)C(=O)OC3 [Example 158, 9-(2-((2-(1,3-dioxolan-2-yl)ethyl)(methyl)amino)pyrimidin-5-yl)-6,7-dimethoxynaphtho[2,3-c]furan-1(3H)-one]	7.26	6.89 µM	> 50 µM	
COc1cc2cc3c(c(-c4ccc(N(C)C(C)C)nc4)c2cc1OC)C(=O)OC3 [Example 188, 9-(6-(isopropyl(methyl)amino)pyridin-3-yl)-6,7-dimethoxynaphtho[2,3-c]furan-1(3H)-one]	1418.97	0.04 µM	> 50 µM	
COc1cc2cc3c(c(-c4cnc(N5CCC[C@H]5C(N)=O)nc4)c2cc1OC)C(=O)OC3 [Example 49, (S)-1-(5-(6,7-dimethoxy-3-oxo-1,3-dihydronaphtho[2,3-c]furan-4-yl)pyrimidin-2-yl) pyrrolidin-2-carboxamide]	1.00	> 50 µM	> 50 µM	
CCOP(=O)(OCC)Oc1cc2c(cc1-c1c3c(cc4cc(OC)c(OC)cc14)COC3=O)OCO2 [Example 277, 6-(6,7-dimethoxy-3-oxo-1,3-dihydronaphtho[2,3-c]furan-4-yl)benzo[d][1,3]dioxol-5-yl diethyl phosphate]	1.00		> 50 µM	> 50 µM
COc1cc2cc3c(c(-c4ccc(N5CCCCC5)cc4)c2cc1OC)C(=O)OC3 [Example 242, 6,7-dimethoxy-9-(4-(piperidin-1-yl)phenyl)naphtho[2,3-c]furan-1(3H)-one]	5.45	1.94 µM	10.6 µM	
COc1cc2cc3c(c(-c4ccc(N5CCCC(C)C5)nc4)c2cc1OC)C(=O)OC3 (stereo not drawn) [Example 126, 6,7-dimethoxy-9-(6-(3-methylpiperidin-1-yl)pyridin-3-yl)naphtho[2,3-c]furan-1(3H)-one]	122.97	0.41 µM	> 50 µM	
COCCN(CCOC)c1ncc(-c2c3c(cc4cc(OC)c(OC)cc24)COC3=O)cn1 [Example 72, 9-(2-(bis(2-methoxyethyl)amino)pyrimidin-5-yl)-6,7-dimethoxynaphtho[2,3-c]furan-1(3H)-one]	1.64	30.4 µM	> 50 µM	
COc1cc2cc3c(c(-c4cnc(N5CCN(C)CC5)nc4)c2cc1OC)C(=O)OC3 [Example 7]	3.74	13.4 µM	> 50 µM	
COc1cc2cc3c(c(-c4ccc5nccc(N6CCNCC6)c5c4)c2cc1OC)C(=O)OC3 [Example 135, 6,7-dimethoxy-9-(4-(piperazin-1-yl)quinolin-6-yl)naphtho[2,3-c]furan-1(3H)-one]	2.90	17.2 µM	> 50 µM	
COc1cc2cc3c(c(-c4cc5c(cc4OP(=O)(NC(C)C)Oc4ccccc4)OCO5)c2cc1OC)C(=O)OC3 (stereo not drawn) [Example 278, 6-(6,7-dimethoxy-3-oxo-1,3-dihydronaphtho[2,3-c]furan-4-yl)benzo[d][1,3]dioxol-5-yl phenyl isopropylphosphoramidate]	1.00		> 50 µM	> 50 µM
COc1cc2cc3c(c(-c4ccc5c(N6CCNCC6)ccnc5c4)c2cc1OC)C(=O)OC3 [Example 152, 6,7-dimethoxy-9-(4-(piperazin-1-yl)quinolin-7-yl)naphtho[2,3-c]furan-1(3H)-one]	2.10	23.8 µM	> 50 µM	
COc1cc2cc3c(c(-c4ccc(N5CCc6ccccc6C5)nc4)c2cc1OC)C(=O)OC3.Cl [Example 189, 9-(6-(3,4-dihydroisoquinolin-2 (1H)-yl)pyridin-3-yl)-6,7-dimethoxynaphtho[2,3-c]furan-1(3H)-one]	72.26		> 50 µM	0.69 µM
COc1cc2cc3c(c(-c4cccc5cccnc45)c2cc1OC)C(=O)OC3 [Example 125, 6,7-dimethoxy-9-(quinolin-8-yl)naphtho[2,3-c]furan-1(3H)-one]	1.0	> 50 µM	> 50 µM	
COc1cc2cc3c(c(-c4ccc(N(C)c5nnc(C)o5)nc4)c2cc1OC)C(=O)OC3 [Example 231, 6,7-dimethoxy-9-(6-(methyl(5-methyl-1,3,4-oxadiazol-2-yl)amino)pyridin-3-yl)naphtho[2,3-c]furan-1(3H)-one]	1.00	> 50 µM	> 50 µM	
COc1cc2cc3c(c(-c4cnc(N5CCc6ccccc6[C@@H]5c5ccccc5)nc4)c2cc1OC)C(=O)OC3 [Example 151, (S)-6,7-dimethoxy-9-(2-(1-phenyl-3,4-dihydroisoquinolin-2 (1H)-yl)pyrimidin-5-yl)naphtho[2,3-c]furan-1(3H)-one]	1.0	> 50 µM	> 50 µM	
CCCCN(CC)c1ncc(-c2c3c(cc4cc(OC)c(OC)cc24)COC3=O)cn1 [Example 66, 9-(2-(butyl(ethyl)amino)pyrimidin-5-yl)-6,7-dimethoxynaphtho[2,3-c]furan-1(3H)-one]	19.03	2.63 µM	> 50 µM	
CCN(CC)c1ccc(-c2c3c(cc4cc(OC)c(OC)cc24)COC3=O)cc1 [Example 249, 9-(4-(diethylamino)phenyl)-6,7-dimethoxynaphtho[2,3-c]furan-1(3H)-one]	100.23	0.5 µM	> 50 µM	
COc1cc2cc3c(c(-c4cc5c(cc4OC(=O)C(C)(C)C)OCO5)c2cc1OC)C(=O)OC3 [Example 276, 6-(6,7-dimethoxy-3-oxo-1,3-dihydronaphtho[2,3-c]furan-4-yl)benzo[d][1,3]dioxol-5-yl pivalate]	1.00	> 50 µM	> 50 µM	
COc1cc2cc3c(c(-c4ccc(N(C)C)nc4)c2cc1OC)C(=O)OC3 [Example 163, 9-(6-(dimethylamino)pyridin-3-yl)-6,7-dimethoxynaphtho[2,3-c]furan-1(3H)-one]	885.42	0.06 µM	> 50 µM	
CCN(c1ccc(-c2c3c(cc4cc(OC)c(OC)cc24)COC3=O)cn1)C1Cc2ccccc2C1 [Example 195, 9-(6-((2,3-dihydro-1H-indan-2-yl)(ethyl)amino)pyridin-3-yl)-6,7-dimethoxynaphtho[2,3-c]furan-1(3H)-one]	9.50	5.27 µM	> 50 µM	
COc1cc2cc3c(c(-c4cc5c(cc4OP(=O)(NCCN4CCOCC4)c4ccccc4)OCO5)c2cc1OC)C(=O)OC3 (stereo not drawn) [Example 280, 6-(6,7-dimethoxy-3-oxo-1,3-dihydronaphtho[2,3-c]furan-4-yl)benzo[d][1,3]dioxol-5-yl N-(2-morpholinoethyl)-P-phenylphosphoramidate]	25.56		> 50 µM	1.96 µM
COc1cc2cc3c(c(-c4cnc(N(C)Cc5ccc(C)o5)nc4)c2cc1OC)C(=O)OC3 [Example 103, 6,7-dimethoxy-9-(2-(methyl((5-methylfuran-2-yl)methyl)amino)pyrimidin-5-yl)naphtho[2,3-c]furan-1(3H)-one hydrochloride]	175.17		> 50 µM	0.29 µM
COc1cc2cc3c(c(-c4cnc(N5CCC6(CC5)OCCO6)nc4)c2cc1OC)C(=O)OC3 [Example 89, 9-(2-(1,4-dioxa-8-azaspiro[4.5]decan-8-yl)pyrimidin-5-yl)-6,7-dimethoxynaphtho[2,3-c]furan-1(3H)-one]	1.00	> 50 µM	> 50 µM	
COc1cc2cc3c(c(-c4cnc(OCCN5C[C@@H](C)O[C@@H](C)C5)nc4)c2cc1OC)C(=O)OC3 [Example 54, 9-(2-(2-((2S,6R)-2,6-dimethylmorpholino)ethoxy)pyrimidin-5-yl)-6,7-dimethoxynaphtho[2,3-c]furan-1(3H)-one]	1.00	> 50 µM	> 50 µM	
COc1cc2cc3c(c(N4C[C@@H](C)O[C@@H](C)C4)c2cc1OC)C(=O)OC3 [Example 2, 9-((2S,6R)-2,6-dimethylmorpholino)-6,7-dimethoxynaphtho[2,3-c]furan-1(3H)-one]	1.00	> 50 µM	> 50 µM	
COc1cc2cc3c(c(-c4ccc(N(C)C5CC5)nc4)c2cc1OC)C(=O)OC3 [Example 171, 9-(6-(cyclopropyl(methyl)amino)pyridin-3-yl)-6,7-dimethoxynaphtho[2,3-c]furan-1(3H)-one]	885.42	0.06 µM	> 50 µM	
